Data from paper PMC9637222, “Autoinducer-2 and bile salts induce c-di-GMP synthesis to repress the T3SS via a T3SS chaperone” (Nature Communications, 2022).
pKd: −log10 of the molar value. “And” between values parts separate entries of the source, which are not always exact repeats. Identical values can stand only once. Like-named read-outs stand apart in the source and are kept apart here.

Key:
[1] = target: T1, SicA D67A (Salmonella typhimurium, UniProt P69066, D67A); type: binding, S. Typhimurium
T1 construct: His6 (N, cleaved yes); made in house; host or cells: E. coli BL21(DE3), pET-28a (pET28a-sicAD67A)
T1 sequence (P69066 whole entry D67A): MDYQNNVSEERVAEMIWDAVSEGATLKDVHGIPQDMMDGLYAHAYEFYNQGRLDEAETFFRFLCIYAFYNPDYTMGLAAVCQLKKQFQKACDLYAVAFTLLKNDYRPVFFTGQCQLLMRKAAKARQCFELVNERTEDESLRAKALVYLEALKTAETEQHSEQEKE

[2] = target: T2, SycD (WP_010891209) (Yersinia enterocolitica, UniProt O87496); type: binding; conditions: for pKd: ITC
T2 sequence (O87496 1-168): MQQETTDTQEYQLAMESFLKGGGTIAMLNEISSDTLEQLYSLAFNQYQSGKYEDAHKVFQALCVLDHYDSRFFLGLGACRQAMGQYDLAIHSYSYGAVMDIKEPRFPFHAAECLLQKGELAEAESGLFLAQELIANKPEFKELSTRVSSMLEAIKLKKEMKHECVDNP

[3] = target: T3, CesD (WP_000379288) (Escherichia coli O157:H7, UniProt Q8X6H6); type: binding, EHEC O157:H7; conditions: for pKd: ITC
T3 sequence (Q8X6H6 1-163): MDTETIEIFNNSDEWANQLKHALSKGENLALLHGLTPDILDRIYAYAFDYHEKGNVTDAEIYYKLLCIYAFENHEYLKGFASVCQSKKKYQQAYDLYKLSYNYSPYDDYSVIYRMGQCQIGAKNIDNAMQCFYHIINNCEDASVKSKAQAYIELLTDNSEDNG

[4] = range given for all 6 chaperones (PcrH, IpgC, SycD, CesD, BicA, VcrH), read-out: Kd

Which “n, c-di-GMP binding to SicAD67A” value ([1]; ITC binding stoichiometry n, individual replicates, Supplementary Figure 17d) does the source give for `Nc1nc2c(ncn2C2OC3COP(=O)(O)OC4C(COP(=O)(O)OC3C2O)OC(n2cnc3c(=O)[nH]c(N)nc32)C4O)c(=O)[nH]1` (centres unmarked) [c-di-GMP, Cyclic di-GMP] here?
Its value is 0.99 and 1.02 and 0.94.

What about the pKd ([1]; binding to SicA D67A) of the same compound?
Its pKd is 4.48 and 4.47 and 4.49.

And the “n, c-di-GMP binding to SycD” value ([2]; ITC binding stoichiometry n, individual replicates, Supplementary Figure 22c)?
Its value is 1.15 and 1.12.

What about the pKd ([2]; individual replicates, Supplementary Figure 22c, read-out: Kd, c-di-GMP binding to SycD) of the same compound?
The pKd was 6.74 and 6.82 and 6.80.

And the pKd [2, 4]?
The pKd was 6.66 to 6.82.

What about the “n, c-di-GMP binding to CesD” value ([3]; ITC binding stoichiometry n, individual replicates, Supplementary Figure 22d) of the same compound?
The value was 1.03 and 1.09 and 1.15.

What about the pKd ([3]; individual replicates, Supplementary Figure 22d, read-out: Kd, c-di-GMP binding to CesD) of the same compound?
The pKd was 6.77 and 6.74 and 6.72.

What about the pKd [3, 4] of the same compound?
Its pKd is 6.66 to 6.82.
